Activity calls are given as the source filed them. The calls are words filed in the database; no cut-off is given here.
Molecular target: T1, Solute carrier family 2, facilitated glucose transporter member 4 (Rattus norvegicus) (UniProt P19357)
T1 sequence (whole entry): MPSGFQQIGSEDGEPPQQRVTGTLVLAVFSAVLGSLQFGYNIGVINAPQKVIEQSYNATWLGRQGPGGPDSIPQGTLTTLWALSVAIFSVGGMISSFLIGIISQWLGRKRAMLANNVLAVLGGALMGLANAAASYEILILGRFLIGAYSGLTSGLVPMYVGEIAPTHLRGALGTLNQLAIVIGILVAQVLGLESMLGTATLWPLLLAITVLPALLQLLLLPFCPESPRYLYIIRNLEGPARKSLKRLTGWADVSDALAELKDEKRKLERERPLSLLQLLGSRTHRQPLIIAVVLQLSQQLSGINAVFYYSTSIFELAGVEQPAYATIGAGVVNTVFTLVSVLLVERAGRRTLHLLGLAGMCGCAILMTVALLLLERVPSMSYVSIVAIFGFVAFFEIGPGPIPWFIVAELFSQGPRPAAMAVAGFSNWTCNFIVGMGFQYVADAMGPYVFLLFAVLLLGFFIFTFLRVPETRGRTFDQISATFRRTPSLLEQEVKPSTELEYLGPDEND
Assay: Enhancement of GLUT4 translocation in rat L6 cells expressing pIRAP-mOrange cDNAs at 10 uM after 10 mins by fluorescence assay relative to control
Assay type: cell-based

SMILES	fold change (FC)	Activity
CC1(C)CC[C@]2(C(=O)O)CC[C@]3(C)C(=CC[C@@H]4[C@@]5(C)CC[C@H](O)C(C)(C)[C@@H]5CC[C@]43C)[C@@H]2C1	0.7	–
O=C1c2c(O)cc(O)cc2O[C@@H](c2ccc(O)cc2)[C@@H]1O	–	inactive
C[C@H]1[C@H](C)CC[C@]2(C(=O)O)CC[C@]3(C)C(=CC[C@@H]4[C@@]5(C)C[C@@H](O)[C@H](O)[C@@](C)(CO)[C@@H]5[C@H](O)C[C@]43C)[C@H]12	0.7	–
C[C@H]1[C@H](C)CC[C@]2(C(=O)O)CC[C@]3(C)C(=CC[C@@H]4[C@@]5(C)C[C@@H](O)[C@H](O)C(C)(C)[C@@H]5CC[C@]43C)[C@H]12	1.78	–
O=c1c(OC2O[C@H](CO)[C@@H](O)[C@H](O)[C@H]2O)c(-c2cc(O)c(O)c(O)c2)oc2cc(O)cc(O)c12 (some centres not stated)	–	inactive
CC(C)CC1C2=C(Oc3cc(O)c(C(=O)CCc4ccccc4)c(O)c31)C(C)(C)C(=O)C(C)(C)C2=O (racemic)	0.49	–
O=C(O)c1cc(O)c(O)c(O)c1	–	inactive
C[C@@H]1CC[C@]2(C(=O)O)CC[C@]3(C)C(=CC[C@@H]4[C@@]5(C)C[C@@H](O)[C@@H](O)C(C)(C)[C@@H]5CC[C@]43C)[C@@H]2[C@]1(C)O	0.7	–
C=C(C)[C@@H]1CC[C@]2(C(=O)O)CC[C@]3(C)[C@H](CC[C@@H]4[C@@]5(C)CC[C@H](O)C(C)(C)[C@@H]5CC[C@]43C)[C@@H]12	2.38	–
C[C@H]1[C@H](C)CC[C@]2(C(=O)O)CC[C@]3(C)C(=CC[C@@H]4[C@@]5(C)CC[C@H](O)C(C)(C)[C@@H]5CC[C@]43C)[C@H]12	0.7	–
C[C@H]1[C@H](C)CC[C@]2(C(=O)O)CC[C@]3(C)C(=CC[C@@H]4[C@@]5(C)C[C@@H](O)[C@H](O)[C@@](C)(CO)[C@@H]5CC[C@]43C)[C@H]12	0.47	–
O=c1c(O[C@@H]2O[C@H](CO)[C@@H](O)[C@H](O)[C@H]2O)c(-c2ccc(O)c(O)c2)oc2cc(O)cc(O)c12	–	inactive

Source: ChEMBL document CHEMBL3297643, “Chemical constituents from Eucalyptus citriodora Hook leaves and their glucose transporter 4 translocation activities” (Bioorg Med Chem Lett, 2014)
